Patent US9204643B2, “Temperature stable cloquintocet-mexyl aqueous compositions” (Dow AgroSciences LLC, priority 2012, dated 2015)

Tests used:
[1] = Storage of hydrated CQCM/pyroxsulam concentrate two weeks at 54° C., chemical stability; assay type: physicochemical; settings: for Chemical Stability: in hydrated CQCM/pyroxsulam concentrate
Method: The aqueous phase was formed by combining water, propylene glycol, antifoam, and wetter surfactant (SYNPERONIC 13/6.5; Croda USA) in a vessel. Powdered anhydrous CQCM was added to the aqueous phase and mixed with a low shear turbine type agitator for 1 hour or until the CQCM was fully converted to the hydrate. A tallow or coco-amine 15 mole ethoxylate (e.g., ETHOMEEN C-25; Akzo Nobel), and MORWET D-425 (Akzo Nobel) were added and mixed in with high shear agitation, followed by the addition of the remaining ingredients shown in Table 4. KELZAN S is a thickener commercially available from CPKelco; Atlanta, Ga. The slurry was then processed through a bead mill to yield the finished product. Short term accelerated storage testing was conducted using freeze/thaw (F/T) conditions during which the temperature was cycled between about −10° C. and 40° C. in a 2 hour period after remaining at −10° C. or 40° C. for 24 hours, as in Example 1. Samples of the composition containing pyroxsulam were also stored for two weeks at 54° C. to evaluate chemical stability of the CQCM […].

[2] = One year storage stability of hydrated CQCM/pyroxsulam concentrate in an unheated shed; assay type: physicochemical
Method: A 10 L production batch of the composition shown in Table 4 was prepared, dispatched for field trials in Australia, and stored for 1 year in an unheated shed subjected to temperatures ranging from −4° C. to 43° C.

Row | Chemical Analysis (content in concentrate) ([1]; 54° C. (2 weeks)) [% w/w] | Chemical Stability ([1]; 54° C. (2 weeks)) [%] | Chemical Analysis (content in concentrate) ([1]; initial composition) [% w/w] | Chemical Stability: Content ([2]; after 1 year, −4° C. to 43° C.) | Chemical Stability: Retention ([2]; after 1 year, −4° C. to 43° C.) | Chemical Stability: Content ([2]; initial) | Structure (SMILES)
1 | 4.73 | 102 | 4.65 | Pyroxsulam: 4.84 % w/w | Pyroxsulam: 104% | Pyroxsulam: 4.65 % w/w | COc1cc(OC)n2nc(NS(=O)(=O)c3c(C(F)(F)F)ccnc3OC)nc2n1 [Pyroxsulam]
2 | 13.24 | 97 | 13.69 | CQCM: 14.40 % w/w | CQCM: 102% | CQCM: 14.15 % w/w | CCCCCC(C)OC(=O)COc1ccc(Cl)c2cccnc12 (stereo not drawn) [CQCM, Cloquintocet-mexyl]
